Data as given in patent US20240050526A1, “CATH2 DERIVATIVES FOR STIMULATING INNATE IMMUNE MEMORY” (priority 2020, published 2024).
Square brackets hold non-standard residues; d marks the D form. Ends that are not written are not given here.

Experiments:
dTHP-1 cells = assay: Innate immune training of dTHP-1 cells by cathelicidin peptides, cytokine ELISA after TLR agonist re-stimulation; format: cell-based, human
Method: THP-1 cells were cultured in Iscove Modified Dulbecco Media (IMDM, Gibco) containing Glutamax-I, sodium pyruvate, 10% fetal calf serum at 37° C. and 5% CO2. For differentiation to macrophage-like cells, THP-1 cells were grown in IMDM/FCS medium containing 8 of 100 nM PMA and seeded in 96 wells (5×10^4 cells/well), 24 wells (3×10^5 cells/well) or 6 wells plates (1×10^6 cells/well) during 48 h. Subsequently, dTHP-1 were washed with pre-warmed IMDM/FCS, left overnight to rest and primed during 1 to 24 h with 2-10 μM peptides of fresh IMDM/FCS medium, washed 3 times in medium. After 3 days rest cells were stimulated with various stimuli: S. minnesota LPS (10 ng/ml), E. coli LPS (10 or 50 ng/ml), Pam3CSK4 (1 μg/ml) or Pam2CSK4 (1 μg/ml). After 24 h supernatants were collected and stored at −20° C. For inhibition, dTHP-1 cells were pre-incubated for 1 h before priming and during priming with rapamycin (10 nM), AICAR (50 nM), metformin (0.3 mM), wortmannin (1 μM), ascorbate (50 μM), SB203580 (10 μM), PD98059 (10 μM), SP600125 (10 μM), EGCG (40 μM), anacardic acid (50 μM), curcumin (10 μM), garcinol (10 μM), Bay-11-7085 (10 μM), MTA (1 mM), MM-102 (25 μM), suramin (50 μM), KN-62 (3 μM), nystatin (10 μg/ml), and chlorpromazine (10 μM).
TNFα, IL-6, CXCL10 and CCL5 production were measured using ELISA (R&D systems) following instructions of the manufacturer.
Extrapolating from the trained immunity experiments with human monocytes, we examined if mature cathelicidin peptides could induce trained immunity in TH P-1 cells, a human monocyte cell line. TH P-1 cells were differentiated with 100 nM or 8 nM phorbol 12-myristate 13-acetate (PMA) during 48 h washed 3 times and, after overnight rest, primed with 2-10 μM of chicken cathelicidin 2 (CATH-2), its full D-analog DCATH-2 or human cathelicidin LL-37 for 24 h. Subsequently, dTHP-1 cells were washed 3 times and re-stimulated after a 3-day rest period with TLR agonists (24 h) (FIG. 1a). […] Priming with 5 μM of its full-D-amino acid analog DCATH-2 amplified 2- to 3-fold the TNFα and IL-6 production in response to LPS stimulation. A minor response was found for priming with 10 μM LL-37, which amplified IL-6 production 1.4-fold in 100 nM differentiated cells.

Salmonella enterica = conditions: injected into the yolk of zebrafish embryos, intravenous infection; cited from earlier work

## rfgrflrkirrfrpkvtitiqgsarf-NH2 ([dR][dF]G[dR][dF][dL][dR][dK][dI][dR][dR][dF][dR][dP][dK][dV][dT][dI][dT][dI][dQ]G[dS][dA][dR][dF]-NH2; N-terminus assumed; SMILES CC[C@@H](C)[C@@H](NC(=O)[C@@H](CCCCN)NC(=O)[C@@H](CCCNC(=N)N)NC(=O)[C@@H](CC(C)C)NC(=O)[C@@H](Cc1ccccc1)NC(=O)[C@@H](CCCNC(=N)N)NC(=O)CNC(=O)[C@@H](Cc1ccccc1)NC(=O)[C@H](N)CCCNC(=N)N)C(=O)N[C@H](CCCNC(=N)N)C(=O)N[C@H](CCCNC(=N)N)C(=O)N[C@H](Cc1ccccc1)C(=O)N[C@H](CCCNC(=N)N)C(=O)N1CCC[C@@H]1C(=O)N[C@H](CCCCN)C(=O)N[C@@H](C(=O)N[C@@H](C(=O)N[C@@H](C(=O)N[C@@H](C(=O)N[C@@H](C(=O)N[C@H](CCC(N)=O)C(=O)NCC(=O)N[C@H](CO)C(=O)N[C@H](C)C(=O)N[C@H](CCCNC(=N)N)C(=O)N[C@H](Cc1ccccc1)C(N)=O)[C@H](C)CC)[C@H](C)O)[C@H](C)CC)[C@H](C)O)C(C)C) [DCATH-2, full D-amino acid analog of CATH-2]
dTHP-1 cells; 5 μM, re-stimulation with E. coli O111:B4 LPS, Pam3CSK4 or Pam2CSK4
  TNFα and IL-6 production after re-stimulation with TLR2 and TLR4 ligands: amplified
dTHP-1 cells; 5 μM, re-stimulation with TLR2 and TLR4 agonists
  production of CCL5 and CXCL10: not altered
dTHP-1 cells; 24 h priming (2.5-5 μM DCATH-2), 3 days rest, no re-stimulation
  basal production levels of TNFα and IL-6: not altered
dTHP-1 cells; TNFα amplification, re-stimulation with 1 μg/ml Pam3CSK4
  priming time reaching highest level of training: 24 h
Salmonella enterica
  mortality after lethal dose of Salmonella enterica: delayed mortality
